Laboratory results: patent publication US20260242390A1, “TOTAL SYNTHESES OF PORTIMINE A AND ANALOGUES THEREOF AS SMALL MOLECULE MODULATORS OF NMD3” (priority 2023, published 2026)

What was measured:
HCC1806 = experiment: Cell toxicity in HCC1806 cells; assay type: cell-based, human; details: 36-hour treatment
human PBMCs = experiment: Immunoblot of caspase-3 in PBMCs; assay type: cell-based
Excerpt: FIG. 3. Initial SAR studies: Assessing activity of PAL functionalized PTMA analogs. […] (A) PA and Ph-PA show less toxic to healthy PBMCs compared to Jurkat cells. […] (B) Immunoblot of caspase-3 in Jurkat and PBMCs with indicated conditions.
• 1) Portimine A and its functional analogs show stereo-selective acute toxicity in cancer cells (FIG. 1). […] (B) Structure of portimine related analogs: phenyl-portimine A (Ph-PA, 36) and epi-portimine A (ePA, 38). Structure of fully functionalized portimine A-based epimeric probe pair: portimine A-diazirine-alkyne (PA-DA, 35-2) and epi-portimine A-diazirine-alkyne (ePA-DA, 35-1). (C) Cell viability analysis of portimine A and analogs. Jurkat cells were treated with increasing concentrations of portimine A and analogs for 24 hours. All presented data as mean of biological replicated experiments (n=3). […] Jurkat cells were treated with portimine A or analogs for 12 hours at 10 nM. […] Structurally related negative control ePA and PB are non-toxic in all cell types in the current concentrate range. PBMCs (25k per well), Jurkat (10k per well). […] Cell cycle analysis in Jurkat cells (FIG. 2). […] Cell lysates were fractionated by sucrose gradient (5-50%) and each fraction were analyzed by western blot. eIF6 levels increase in 60S subunit fraction and decrease in ribosome-free fractions after PA treatment. […]

SMILES	cell toxicity in breast (HCC1806) cancer cell line (HCC1806)	caspase-3 cleavage in human PBMCs (human PBMCs)
C=CC1=C[C@@H]2[C@@H]3O[C@]4(CC[C@H](O4)C(C)C[C@@H](O)C3=O)C[C@@H](O)C3=NCC[C@@]32CC1 (stereo partly drawn) [ePA, epi-portimine A]	minimal effects	
C=CC1=C[C@@H]2[C@@H]3O[C@]4(CC[C@H](O4)C(C)C[C@@H](O)C3=O)CC(O)C3=NCC[C@@]32CC1 (stereo partly shown) [PA, portimine A]		but not human PBMCs
C=CC1=C[C@@H]2[C@@H]3OC4(CC[C@H](O4)C(C)C[C@@H](O)C3=O)CC(=O)C3=NCC[C@@]32CC1 (stereo partly shown) [PB, portimine B]	minimal effects	
C#CCCC1(CCNC(=O)c2ccc(C3=C[C@@H]4[C@@H]5O[C@]6(CC[C@H](O6)C(C)C[C@@H](O)C5=O)CC(O)C5=NCC[C@@]54CC3)cc2)N=N1 (stereo partly shown) [PA-DA, portimine A-diazirine-alkyne]		but not human PBMCs
